# Measurements from patent publication US20090036488A1, “RECURRENCE PREVENTIVE THERAPEUTIC AGENT FOR PSYCHOSTIMULANT-INDUCED PSYCHOSIS AND SCHIZOPHRENIA” (Tokyo Medical and Dental University, priority 2005, published 2009).
# Assays:
# [1] = system: MAP reverse tolerance model; assay: Test to confirm effects of administration with fluoxetine or paroxetine in the MAP reverse tolerance model; type: in vivo, mice
# Protocol: Regarding formation of reverse tolerance, 1 mg/kg/day MAP was administered to eight-week-old male ddy mice for ten days as a pretreatment in a similar way to the abovementioned method. After a 11-day washout period, 10 mg/kg/day fluoxetine was then administered. Fluoxetine was prepared by dissolving in saline and administered by subcutaneous injection. In addition, after 9 to 11-day washout period, 0.24 mg/kg MAP was administered, the locomotor hyperactivity of the mice was measured and evaluated one hour later.
# Regarding formation of reverse tolerance, MAP 1 mg/kg/day […] was administered to eight-week-old male ddy mice for ten days as a pretreatment in a similar way to the abovementioned method. After an 11-day washout period, 8 mg/kg/day paroxetine was then administered. Paroxetine was prepared by dissolving in saline and administered by subcutaneous injection. In addition, after 9 to 11-day washout period, 0.24 mg/kg MAP was administered, and the locomotor hyperactivity of the mice was measured and evaluated one hour later.
# [2] = system: male ddy mice; assay: Test for formation/maintenance of reverse tolerance; type: in vivo
# Protocol: Methamphetamine (hereinafter, may be also referred to as “MAP”) which is a psychostimulant was administered to an animal, and then formation/maintenance of reverse tolerance was verified. In this test, eight-week-old male ddy mice were used. […] First, mice were divided into two groups, and then 1 mg/kg/day MAP and saline were respectively administered to each group for ten days as pretreatment. The agent was prepared by dissolving in saline and administered by subcutaneous injection. Hereinafter, the group to which MAP was administered is called “MAP administrated group”, and the group to which saline was administered is called “SAL administrated group”. MAP of 1 mg/kg used here corresponds an amount to result in increase in locomotor hyperactivity when it is administered to mice. In addition, a first administration of MAP was conducted after a 10-day washout period in order to confirm if this phenomenon was maintained. The dosage, 0.24 mg/kg, was less than that of the pretreatment, which is reportedly a quantity not causing abnormal behavior to appear in normal mice received the administration. Then, following a 29-day washout period, a second administration was conducted. Upon the administration on the day 10 and the day 29, MAP was also administered to the SAL administrated group in the same amount as administered to the MAP administrated group.
# During the pretreatment, activity quantity in an hour was measured after MAP or saline administration on Days 1, 3, 7, and 10. […] In the case of a typical drug administration, tolerance is formed to gradually decrease influences of the administered drug.
# In addition, comparing the MAP administrated group with the SAL administrated group, in both administrations on day 10 and day 29, it was clear that the activity quantity of the MAP administrated group was higher, so that it was confirmed that influences of the drug were maintained even after a longer than one-month washout period.
smiles,measurement,setting,value
"CNCCC(Oc1ccc(C(F)(F)F)cc1)c1ccccc1 (stereo not drawn) [FLX, fluoxetine]",locomotor hyperactivity vs group without FLX in the treatment phase (Example 1 vs Comparative Example 7),"[1]; MAP 1 mg/kg/day for 10 days, 11-day washout, fluoxetine 10 mg/kg/day s.c., 9 to 11-day washout, 0.24 mg/kg MAP, measured one hour later",locomotor hyperactivity decreased
same,"reverse tolerance, vs group in which reverse tolerance was not formed (Example 1 vs Comparative Example 3)","[1]; fluoxetine 10 mg/kg/day s.c. after MAP pretreatment, 0.24 mg/kg MAP challenge",reverse tolerance disappeared
same,"effect of FLX itself on activity quantity (Comparative Example 1 vs 2, 3 vs 4)","[1]; saline pretreatment, reverse tolerance not formed, fluoxetine 10 mg/kg/day s.c.",did not decrease the activity quantity
"CN[C@@H](C)Cc1ccccc1 [MAP, Methamphetamine]","activity quantity after MAP re-administration, MAP administrated group vs SAL administrated group",[2]; 0.24 mg/kg MAP on day 10 and day 29 after washout,higher
same,formation of reverse tolerance,[2]; MAP 1 mg/kg/day s.c. for ten days,reverse tolerance was formed
same,activity quantity in an hour (locomotor hyperactivities per hour) during pretreatment,"[2]; MAP 1 mg/kg/day s.c. for ten days, measured on Days 1, 3, 7 and 10",increased in a time dependent manner
"Fc1ccc([C@@H]2CCNC[C@H]2COc2ccc3c(c2)OCO3)cc1 [PLX, paroxetine]",locomotor hyperactivity vs group without PLX in the treatment phase (Example 2 vs Comparative Example 14),"[1]; MAP 1 mg/kg/day for 10 days, 11-day washout, paroxetine 8 mg/kg/day s.c., 9 to 11-day washout, 0.24 mg/kg MAP, measured one hour later",locomotor hyperactivity decreased
same,"reverse tolerance, vs group in which reverse tolerance was not formed (Example 2 vs Comparative Example 10)","[1]; paroxetine 8 mg/kg/day s.c. after MAP pretreatment, 0.24 mg/kg MAP challenge",reverse tolerance disappeared
same,"effect of PLX itself on activity quantity (Comparative Example 8 vs 9, 10 vs 11)","[1]; saline pretreatment, reverse tolerance not formed, paroxetine 8 mg/kg/day s.c.",did not decrease activity quantity
